For twelve compounds, MIC results are on record in ChEMBL document CHEMBL4619795, “Establishing the Structure-Activity Relationship of Daptomycin” (ACS Med Chem Lett, 2020).

Format in all cases: functional
In assay [1] the test system is Enterococcus. Kind of assay: Antibacterial activity against Enterococcus 60 assessed as bacterial growth inhibition in presence of 50 ug/ml calcium ions by CLSI protocol based broth microdilution method.
In assay [2] the test system is Staphylococcus aureus. The experiment in a line: Antibacterial activity against Staphylococcus aureus ATCC 29213 assessed as bacterial growth inhibition in presence of 50 ug/ml calcium ions by CLSI protocol based broth microdilution method. In general terms: Broth dilution looks for growth in wells or tubes with falling amounts of substance.
In assay [3] the test system is Enterococcus faecalis. Kind of assay: Antibacterial activity against Enterococcus faecalis ATCC 29212 assessed as bacterial growth inhibition in presence of 50 ug/ml calcium ions by CLSI protocol based broth microdilution method.
For assay [4], the system named is Enterococcus. Kind of assay: Antibacterial activity against Enterococcus 6 assessed as bacterial growth inhibition in presence of 50 ug/ml calcium ions by CLSI protocol based broth microdilution method.
Assay [5] relates to Staphylococcus aureus. Kind of assay: Antibacterial activity against methicillin-resistant Staphylococcus aureus 86 assessed as bacterial growth inhibition in presence of 50 ug/ml calcium ions by CLSI protocol based broth microdilution method.
For assay [6], the system named is Staphylococcus aureus. Kind of assay: Antibacterial activity against methicillin-resistant Staphylococcus aureus 14 assessed as bacterial growth inhibition in presence of 50 ug/ml calcium ions by CLSI protocol based broth microdilution method.
The test system of assay [7] is Enterococcus faecalis. The experiment in a line: Antibacterial activity against Streptococcus faecalis assessed as bacterial growth inhibition in presence of 50 ug/ml calcium ions by CLSI protocol based broth microdilution method.
Assay [8] deals with Staphylococcus aureus. The experiment in a line: Antibacterial activity against methicillin-resistant Staphylococcus aureus 11 assessed as bacterial growth inhibition in presence of 50 ug/ml calcium ions by CLSI protocol based broth microdilution method.
The test system of assay [9] is Staphylococcus aureus. Kind of assay: Antibacterial activity against methicillin-resistant Staphylococcus aureus 88 assessed as bacterial growth inhibition in presence of 50 ug/ml calcium ions by CLSI protocol based broth microdilution method.

SMILES strings stand for the structures.

`CCCCCCCCCC(=O)N[C@@H](Cc1c[nH]c2ccccc12)C(=O)N[C@@H](CC(N)=O)C(=O)N[C@@H](CC(=O)O)C(=O)N[C@@H]1C(=O)NCC(=O)N[C@@H](CCC(N)=O)C(=O)N[C@@H](CC(=O)O)C(=O)N[C@H](C)C(=O)N[C@@H](CC(=O)O)C(=O)NCC(=O)N[C@H](CO)C(=O)N[C@@H]([C@@H](C)CC(=O)O)C(=O)N[C@@H](CC(=O)c2ccccc2N)C(=O)O[C@@H]1C`: the MIC (in general, the lowest concentration that inhibits growth of the organism) is at least 32 µg/mL in the assay with Enterococcus [1]; 4 µg/mL in the assay with Staphylococcus aureus [2]; at least 32 µg/mL with Enterococcus faecalis [3]; at least 32 µg/mL with Enterococcus [4]; 4 µg/mL in the assay with Staphylococcus aureus [5]; at least 32 µg/mL in the assay on Staphylococcus aureus [6]. The MIC in the assay on Enterococcus faecalis [7] is at least 32 µg/mL; in the assay with Staphylococcus aureus [8] it was at least 32 µg/mL; in the assay on Staphylococcus aureus [9], 4 µg/mL.

As for `CCCCCCCCCC(=O)N[C@@H](Cc1c[nH]c2ccccc12)C(=O)N[C@@H](CC(N)=O)C(=O)N[C@@H](CC(=O)O)C(=O)N[C@@H]1C(=O)NCC(=O)N[C@@H](CCCN)C(=O)N[C@@H](C)C(=O)N[C@H](C)C(=O)N[C@@H](CC(=O)O)C(=O)NCC(=O)N[C@H](CO)C(=O)N[C@@H]([C@@H](C)CC(=O)O)C(=O)N[C@@H](CC(=O)c2ccccc2N)C(=O)O[C@@H]1C`, the minimum inhibitory concentration (MIC) in the assay with Enterococcus [1], in the assay with Staphylococcus aureus [2], with Enterococcus faecalis [3], in the assay with Enterococcus [4], with Staphylococcus aureus [5] and in the assay with Staphylococcus aureus [6] was at least 64 µg/mL in each case. The MIC with Enterococcus faecalis [7], with Staphylococcus aureus [8] and in the assay with Staphylococcus aureus [9] was at least 64 µg/mL each time.

Turning to `CCCCCCCCCC(=O)N[C@@H](Cc1c[nH]c2ccccc12)C(=O)N[C@@H](CC(N)=O)C(=O)N[C@@H](CC(=O)O)C(=O)N[C@@H]1C(=O)NCC(=O)N[C@@H](CCCN)C(=O)N[C@@H](CC(=O)O)C(=O)N[C@@H](C)C(=O)N[C@@H](CC(=O)O)C(=O)NCC(=O)N[C@H](CO)C(=O)N[C@@H]([C@@H](C)CC(=O)O)C(=O)N[C@@H](CC(=O)c2ccccc2N)C(=O)O[C@@H]1C`, the MIC with Enterococcus [1], with Staphylococcus aureus [2], in the assay with Enterococcus faecalis [3], in the assay on Enterococcus [4], in the assay with Staphylococcus aureus [5] and with Staphylococcus aureus [6] was at least 64 µg/mL each time. The minimum inhibitory concentration (MIC) in the assay with Enterococcus faecalis [7], in the assay on Staphylococcus aureus [8] and with Staphylococcus aureus [9] was at least 64 µg/mL each time.

Regarding `CCCCCCCCCC(=O)N[C@@H](Cc1ccc(OC)cc1)C(=O)N[C@@H](CC(N)=O)C(=O)N[C@@H](CC(=O)O)C(=O)N[C@@H]1C(=O)NCC(=O)N[C@@H](CCCN)C(=O)N[C@@H](CC(=O)O)C(=O)N[C@H](C)C(=O)N[C@@H](CC(=O)O)C(=O)NCC(=O)N[C@H](CO)C(=O)N[C@@H]([C@@H](C)CC(=O)O)C(=O)N[C@@H](CC(=O)c2ccccc2N)C(=O)O[C@@H]1C`, the minimal inhibitory concentration (MIC) is at least 32 µg/mL in the assay with Enterococcus [1]; 2 µg/mL in the assay on Staphylococcus aureus [2]; at least 32 µg/mL in the assay with Enterococcus faecalis [3]; at least 32 µg/mL in the assay with Enterococcus [4]; 2 µg/mL in the assay with Staphylococcus aureus [5]; 4 µg/mL in the assay with Staphylococcus aureus [6]. Also, the MIC in the assay with Enterococcus faecalis [7] stood at 8 µg/mL; in the assay with Staphylococcus aureus [8] it was 16 µg/mL; in the assay with Staphylococcus aureus [9], 2 µg/mL.

As for `CCCCCCCCCC(=O)N[C@@H](C)C(=O)N[C@@H](CC(N)=O)C(=O)N[C@@H](CC(=O)O)C(=O)N[C@@H]1C(=O)NCC(=O)N[C@@H](CCCN)C(=O)N[C@@H](CC(=O)O)C(=O)N[C@H](C)C(=O)N[C@@H](CC(=O)O)C(=O)NCC(=O)N[C@H](CO)C(=O)N[C@@H]([C@@H](C)CC(=O)O)C(=O)N[C@@H](CC(=O)c2ccccc2N)C(=O)O[C@@H]1C`, the minimum inhibitory concentration (MIC) was at least 64 µg/mL in the assay on Enterococcus [1]; at least 32 µg/mL in the assay with Staphylococcus aureus [2]; at least 64 µg/mL with Enterococcus faecalis [3]; at least 64 µg/mL in the assay on Enterococcus [4]; at least 32 µg/mL with Staphylococcus aureus [5]; at least 32 µg/mL in the assay with Staphylococcus aureus [6]. Further, the MIC with Enterococcus faecalis [7] was at least 64 µg/mL; in the assay with Staphylococcus aureus [8], at least 32 µg/mL; with Staphylococcus aureus [9] it was at least 32 µg/mL.

`CCCCCCCCCC(=O)N[C@@H](Cc1c[nH]c2ccccc12)C(=O)N[C@@H](CC(N)=O)C(=O)N[C@@H](CC(=O)O)C(=O)N[C@@H]1C(=O)NCC(=O)NCC(=O)N[C@@H](CC(=O)O)C(=O)N[C@H](C)C(=O)N[C@@H](CC(=O)O)C(=O)NCC(=O)N[C@H](CO)C(=O)N[C@@H]([C@@H](C)CC(=O)O)C(=O)N[C@@H](CC(=O)c2ccccc2N)C(=O)O[C@@H]1C`: the MIC in the assay on Enterococcus [1], in the assay with Staphylococcus aureus [2], with Enterococcus faecalis [3], in the assay with Enterococcus [4], in the assay with Staphylococcus aureus [5] and in the assay with Staphylococcus aureus [6] was at least 32 µg/mL each time. The MIC in the assay on Enterococcus faecalis [7], in the assay with Staphylococcus aureus [8] and in the assay with Staphylococcus aureus [9] was at least 32 µg/mL throughout.

`CCCCCCCCCC(=O)N[C@@H](Cc1c[nH]c2ccccc12)C(=O)N[C@@H](CC(N)=O)C(=O)N[C@@H](CC(=O)O)C(=O)N[C@@H]1C(=O)NCC(=O)N2CCC[C@H]2C(=O)N[C@@H](CC(=O)O)C(=O)N[C@H](C)C(=O)N[C@@H](CC(=O)O)C(=O)NCC(=O)N[C@H](CO)C(=O)N[C@@H]([C@@H](C)CC(=O)O)C(=O)N[C@@H](CC(=O)c2ccccc2N)C(=O)O[C@@H]1C`: the MIC in the assay on Enterococcus [1], in the assay on Staphylococcus aureus [2], in the assay on Enterococcus faecalis [3], in the assay with Enterococcus [4], in the assay with Staphylococcus aureus [5] and with Staphylococcus aureus [6] was at least 32 µg/mL each time. For the same compound, the minimal inhibitory concentration (MIC) with Enterococcus faecalis [7], in the assay with Staphylococcus aureus [8] and in the assay on Staphylococcus aureus [9] was at least 32 µg/mL in each case.

`CCCCCCCCCC(=O)N[C@@H](Cc1c[nH]c2ccccc12)C(=O)N[C@@H](CC(N)=O)C(=O)N[C@@H](CC(=O)O)C(=O)N[C@@H]1C(=O)NCC(=O)N[C@@H](CCCN)C(=O)N[C@@H](CC(=O)O)C(=O)N[C@H](C)C(=O)N[C@@H]([C@H](C)CC(=O)O)C(=O)NCC(=O)N[C@H](CO)C(=O)N[C@@H](CC(=O)O)C(=O)N[C@@H](CC(=O)c2ccccc2N)C(=O)O[C@@H]1C`: the minimum inhibitory concentration (MIC) in the assay with Enterococcus [1], with Staphylococcus aureus [2], in the assay with Enterococcus faecalis [3], in the assay with Enterococcus [4], with Staphylococcus aureus [5] and with Staphylococcus aureus [6] was at least 32 µg/mL in each case. Further, the MIC with Enterococcus faecalis [7], in the assay with Staphylococcus aureus [8] and in the assay on Staphylococcus aureus [9] was at least 32 µg/mL throughout.

With `CCCCCCCCCC(=O)N[C@@H](Cc1c[nH]c2ccccc12)C(=O)N[C@@H](CC(N)=O)C(=O)N[C@@H](CC(=O)O)C(=O)N[C@@H]1C(=O)NCC(=O)N[C@@H](CCCN)C(=O)N[C@@H](CC(=O)O)C(=O)N[C@H](C)C(=O)N[C@H](CC(=O)O)C(=O)NCC(=O)N[C@H](CO)C(=O)N[C@@H]([C@@H](C)CC(=O)O)C(=O)N[C@@H](CC(=O)c2ccccc2N)C(=O)O[C@@H]1C`, the MIC is at least 32 µg/mL with Enterococcus [1]; 16 µg/mL in the assay on Staphylococcus aureus [2]; at least 32 µg/mL with Enterococcus faecalis [3]; at least 32 µg/mL in the assay with Enterococcus [4]; 16 µg/mL in the assay on Staphylococcus aureus [5]; at least 32 µg/mL in the assay with Staphylococcus aureus [6]. The values for the MIC with Enterococcus faecalis [7], in the assay with Staphylococcus aureus [8] and in the assay on Staphylococcus aureus [9] were at least 32 µg/mL, at least 32 µg/mL and 16 µg/mL, respectively.

As to `CCCCCCCCCC(=O)N[C@@H](Cc1c[nH]c2ccccc12)C(=O)N[C@@H](C)C(=O)N[C@@H](CC(=O)O)C(=O)N[C@@H]1C(=O)NCC(=O)N[C@@H](CCCN)C(=O)N[C@@H](CC(=O)O)C(=O)N[C@H](C)C(=O)N[C@@H](CC(=O)O)C(=O)NCC(=O)N[C@H](CO)C(=O)N[C@@H]([C@@H](C)CC(=O)O)C(=O)N[C@@H](CC(=O)c2ccccc2N)C(=O)O[C@@H]1C`, the MIC with Enterococcus [1] was 32 µg/mL; in the assay with Staphylococcus aureus [2], at least 32 µg/mL; with Enterococcus faecalis [3] it was 64 µg/mL; in the assay with Enterococcus [4], 64 µg/mL; in the assay with Staphylococcus aureus [5], at least 32 µg/mL; in the assay on Staphylococcus aureus [6], at least 32 µg/mL. For the same compound, the MIC in the assay with Enterococcus faecalis [7] was 16 µg/mL; in the assay with Staphylococcus aureus [8] it was at least 32 µg/mL; with Staphylococcus aureus [9], 16 µg/mL.

Take `CCCCCCCCCC(=O)N[C@@H](Cc1c[nH]c2ccccc12)C(=O)N[C@@H](CC(N)=O)C(=O)N[C@@H](CC(=O)O)C(=O)N[C@@H]1C(=O)NCC(=O)N[C@@H](CN)C(=O)N[C@@H](CC(=O)O)C(=O)N[C@H](C)C(=O)N[C@@H](CC(=O)O)C(=O)NCC(=O)N[C@H](CO)C(=O)N[C@@H]([C@@H](C)CC(=O)O)C(=O)N[C@@H](CC(=O)c2ccccc2N)C(=O)O[C@@H]1C`: the MIC with Enterococcus [1] was 8 µg/mL; in the assay with Staphylococcus aureus [2] it was 1 µg/mL; with Enterococcus faecalis [3], at least 32 µg/mL; in the assay with Enterococcus [4], at least 32 µg/mL; in the assay on Staphylococcus aureus [5] it was 1 µg/mL; with Staphylococcus aureus [6], 1 µg/mL. For the same compound, the figures for the MIC in the assay with Staphylococcus aureus [8] and in the assay on Staphylococcus aureus [9] were 8 µg/mL and 0.5 µg/mL, respectively.

Consider `CCCCCCCCCC(=O)N[C@@H](Cc1c[nH]c2ccccc12)C(=O)N[C@@H](CC(N)=O)C(=O)N[C@@H](CC(=O)O)C(=O)N[C@@H]1C(=O)NCC(=O)N[C@@H](CCN)C(=O)N[C@@H](CC(=O)O)C(=O)N[C@H](C)C(=O)N[C@@H](CC(=O)O)C(=O)NCC(=O)N[C@H](CO)C(=O)N[C@@H]([C@@H](C)CC(=O)O)C(=O)N[C@@H](CC(=O)c2ccccc2N)C(=O)O[C@@H]1C`, for which the MIC in the assay with Enterococcus [1] came to 8 µg/mL; in the assay on Staphylococcus aureus [2] it was 0.25 µg/mL; in the assay on Enterococcus faecalis [3] it was 16 µg/mL; with Enterococcus [4], 16 µg/mL; in the assay on Staphylococcus aureus [5], 0.25 µg/mL; in the assay on Staphylococcus aureus [6] it was 0.5 µg/mL. For the same compound, the MIC with Staphylococcus aureus [8] was determined as 2 µg/mL; with Staphylococcus aureus [9], 0.25 µg/mL.
